Measurements: ChEMBL document CHEMBL1155303, “Multiple strategies for the preparation of a sulfur-35 labeled NPC1L1 radioligand” (Bioorg Med Chem Lett, 2009)
pIC50: −log10 of the molar value.

Experiments:
[1] = target: NPC1-like intracellular cholesterol transporter 1 (Mus musculus, UniProt Q6T3U4); assay: (§1) Displacement of [35S](2S,3S,4S,5R,6S)-6-(4-((2S,3R)-3-((S)-3-(4-fluorophenyl)-3-hydroxypropyl)-1-(4-(3-(methylsulfonamido)prop-1-ynyl)phenyl)-4-oxoazetidin-2-yl)phenoxy)-3,4,5-trihydroxytetrahydro-2H-pyran-2-carboxylic acid from recombinant mouse NPC1L1 expressed in HEK cells by single tube filtration assay; format: cell-based, HEK293
[2] = target: T1, NPC1-like intracellular cholesterol transporter 1 (Rattus norvegicus, UniProt Q6T3U3); assay: as §1, with “rat intestinal brush border membrane” for “recombinant mouse”, “NPC1L1” for “NPC1L1 expressed in HEK cells”
[3] = target: T2, NPC1-like intracellular cholesterol transporter 1 (Homo sapiens, UniProt Q9UHC9); assay: as §1, with “human intestinal brush border membrane” for “recombinant mouse”, “NPC1L1” for “NPC1L1 expressed in HEK cells”
T2 sequence (Q9UHC9 whole entry): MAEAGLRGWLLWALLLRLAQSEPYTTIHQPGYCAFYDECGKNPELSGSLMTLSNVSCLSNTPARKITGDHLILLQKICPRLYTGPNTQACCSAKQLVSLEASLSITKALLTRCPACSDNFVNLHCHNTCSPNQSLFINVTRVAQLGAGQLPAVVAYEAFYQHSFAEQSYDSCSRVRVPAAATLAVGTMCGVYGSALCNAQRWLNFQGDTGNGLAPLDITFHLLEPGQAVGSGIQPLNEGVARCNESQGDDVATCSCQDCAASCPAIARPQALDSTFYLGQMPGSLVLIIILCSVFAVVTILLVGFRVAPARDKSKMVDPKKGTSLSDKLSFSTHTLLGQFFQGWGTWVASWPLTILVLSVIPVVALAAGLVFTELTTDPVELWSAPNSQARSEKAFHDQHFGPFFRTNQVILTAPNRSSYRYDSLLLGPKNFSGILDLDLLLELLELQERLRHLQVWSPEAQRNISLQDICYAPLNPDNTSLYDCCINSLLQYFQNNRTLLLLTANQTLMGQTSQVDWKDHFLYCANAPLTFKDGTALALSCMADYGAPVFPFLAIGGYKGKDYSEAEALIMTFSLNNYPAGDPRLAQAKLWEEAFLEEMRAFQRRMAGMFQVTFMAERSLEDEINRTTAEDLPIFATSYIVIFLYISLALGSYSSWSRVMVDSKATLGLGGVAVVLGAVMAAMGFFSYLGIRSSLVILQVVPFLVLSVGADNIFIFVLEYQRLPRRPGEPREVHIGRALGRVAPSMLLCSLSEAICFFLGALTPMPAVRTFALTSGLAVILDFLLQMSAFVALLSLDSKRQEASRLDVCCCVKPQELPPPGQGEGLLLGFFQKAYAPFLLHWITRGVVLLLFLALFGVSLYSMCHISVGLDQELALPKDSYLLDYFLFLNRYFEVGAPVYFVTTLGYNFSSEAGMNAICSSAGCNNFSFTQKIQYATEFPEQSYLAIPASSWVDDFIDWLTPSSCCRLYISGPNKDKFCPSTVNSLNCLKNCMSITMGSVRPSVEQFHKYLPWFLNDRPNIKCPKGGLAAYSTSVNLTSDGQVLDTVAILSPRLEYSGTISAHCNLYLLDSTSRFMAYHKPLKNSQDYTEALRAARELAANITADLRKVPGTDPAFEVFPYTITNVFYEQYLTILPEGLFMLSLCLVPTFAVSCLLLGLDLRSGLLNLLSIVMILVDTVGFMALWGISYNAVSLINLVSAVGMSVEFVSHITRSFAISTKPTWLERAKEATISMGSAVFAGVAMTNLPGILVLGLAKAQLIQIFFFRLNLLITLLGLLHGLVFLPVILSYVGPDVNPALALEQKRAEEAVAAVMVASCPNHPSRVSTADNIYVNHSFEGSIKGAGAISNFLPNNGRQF

[4] = target: T2, NPC1-like intracellular cholesterol transporter 1; assay: as §1, with “human” for “mouse”; format: cell-based, HEK293
[5] = target: T1, NPC1-like intracellular cholesterol transporter 1; assay: as §1, with “rat” for “mouse”; format: cell-based, HEK293

T1 sequence (Q6T3U3 21-1331 limits assumed): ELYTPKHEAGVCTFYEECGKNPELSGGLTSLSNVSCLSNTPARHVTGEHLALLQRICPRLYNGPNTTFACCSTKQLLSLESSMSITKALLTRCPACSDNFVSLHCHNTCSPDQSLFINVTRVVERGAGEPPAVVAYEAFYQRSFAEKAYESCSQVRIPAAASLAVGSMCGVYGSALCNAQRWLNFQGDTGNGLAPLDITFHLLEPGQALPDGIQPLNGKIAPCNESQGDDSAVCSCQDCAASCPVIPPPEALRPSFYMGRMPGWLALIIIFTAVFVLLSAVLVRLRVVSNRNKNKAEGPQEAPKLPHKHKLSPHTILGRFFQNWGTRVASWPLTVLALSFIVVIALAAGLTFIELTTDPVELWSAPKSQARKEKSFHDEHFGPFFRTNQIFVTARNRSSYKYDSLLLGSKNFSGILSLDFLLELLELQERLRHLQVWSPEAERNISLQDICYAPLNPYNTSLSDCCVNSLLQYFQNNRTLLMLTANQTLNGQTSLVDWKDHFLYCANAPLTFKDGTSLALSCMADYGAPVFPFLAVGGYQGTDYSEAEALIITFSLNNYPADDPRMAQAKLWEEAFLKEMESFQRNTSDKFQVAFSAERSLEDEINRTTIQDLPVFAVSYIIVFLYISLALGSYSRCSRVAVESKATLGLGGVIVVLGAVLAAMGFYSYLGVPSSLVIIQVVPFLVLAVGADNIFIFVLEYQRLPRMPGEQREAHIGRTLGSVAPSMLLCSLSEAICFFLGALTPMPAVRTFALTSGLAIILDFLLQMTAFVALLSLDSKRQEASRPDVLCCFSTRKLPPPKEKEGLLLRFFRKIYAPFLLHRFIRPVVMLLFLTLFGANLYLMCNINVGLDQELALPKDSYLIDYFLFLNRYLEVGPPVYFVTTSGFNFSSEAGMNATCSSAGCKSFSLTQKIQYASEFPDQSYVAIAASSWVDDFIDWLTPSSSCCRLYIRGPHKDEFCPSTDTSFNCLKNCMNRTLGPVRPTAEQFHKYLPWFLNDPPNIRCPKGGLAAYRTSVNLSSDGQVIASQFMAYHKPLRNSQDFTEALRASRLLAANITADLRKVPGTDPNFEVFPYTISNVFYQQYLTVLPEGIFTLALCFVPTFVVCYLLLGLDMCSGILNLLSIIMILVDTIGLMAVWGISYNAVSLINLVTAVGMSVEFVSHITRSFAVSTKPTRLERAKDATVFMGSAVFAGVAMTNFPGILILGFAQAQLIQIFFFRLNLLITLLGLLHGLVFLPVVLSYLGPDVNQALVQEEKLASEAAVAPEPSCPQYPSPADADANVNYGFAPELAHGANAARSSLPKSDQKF
Sequence of NPC1-like intracellular cholesterol transporter 1 (Mus musculus, UniProt Q6T3U4) (Q6T3U4 21-1333 limits assumed): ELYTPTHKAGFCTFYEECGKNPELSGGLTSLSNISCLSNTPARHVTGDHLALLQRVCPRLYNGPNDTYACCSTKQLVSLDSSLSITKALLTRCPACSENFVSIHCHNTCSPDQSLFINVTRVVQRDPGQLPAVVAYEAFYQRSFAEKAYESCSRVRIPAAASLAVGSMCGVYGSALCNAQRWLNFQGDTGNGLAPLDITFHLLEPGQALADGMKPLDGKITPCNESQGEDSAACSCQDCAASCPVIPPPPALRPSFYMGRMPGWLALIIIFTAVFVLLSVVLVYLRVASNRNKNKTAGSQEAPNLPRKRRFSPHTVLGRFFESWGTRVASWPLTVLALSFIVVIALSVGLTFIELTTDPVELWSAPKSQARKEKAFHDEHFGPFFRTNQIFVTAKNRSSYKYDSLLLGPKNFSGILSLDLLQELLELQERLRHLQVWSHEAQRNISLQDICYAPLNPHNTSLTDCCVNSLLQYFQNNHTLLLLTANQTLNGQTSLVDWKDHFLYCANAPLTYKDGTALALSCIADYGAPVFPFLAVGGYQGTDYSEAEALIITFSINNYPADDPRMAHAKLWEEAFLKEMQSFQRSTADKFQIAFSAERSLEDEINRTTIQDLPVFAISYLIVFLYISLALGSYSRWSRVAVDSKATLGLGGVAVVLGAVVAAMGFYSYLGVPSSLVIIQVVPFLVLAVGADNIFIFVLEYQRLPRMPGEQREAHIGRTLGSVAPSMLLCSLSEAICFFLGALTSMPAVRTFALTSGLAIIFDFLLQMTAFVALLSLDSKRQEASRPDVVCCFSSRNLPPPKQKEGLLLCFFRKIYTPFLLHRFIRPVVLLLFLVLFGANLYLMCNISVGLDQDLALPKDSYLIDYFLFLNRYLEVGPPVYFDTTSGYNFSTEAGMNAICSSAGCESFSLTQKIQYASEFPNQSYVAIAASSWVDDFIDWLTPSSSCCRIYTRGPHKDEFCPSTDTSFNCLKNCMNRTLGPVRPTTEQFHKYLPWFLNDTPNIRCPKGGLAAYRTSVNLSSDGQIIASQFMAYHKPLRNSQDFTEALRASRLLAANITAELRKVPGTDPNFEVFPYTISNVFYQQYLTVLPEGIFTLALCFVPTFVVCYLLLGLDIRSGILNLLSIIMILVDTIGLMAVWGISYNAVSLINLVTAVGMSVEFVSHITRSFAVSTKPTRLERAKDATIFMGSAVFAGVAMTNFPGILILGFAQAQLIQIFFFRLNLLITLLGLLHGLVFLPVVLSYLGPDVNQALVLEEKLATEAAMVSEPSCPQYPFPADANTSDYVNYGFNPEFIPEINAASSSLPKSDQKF

Compound: C[35S](=O)(=O)NCC#Cc1ccc(N2C(=O)[C@H](CC[C@H](O)c3ccc(F)cc3)[C@H]2c2ccc(O[C@@H]3O[C@H](C(=O)O)[C@@H](O)[C@H](O)[C@H]3O)cc2)cc1
- pIC50 [1]: 7.36
- pIC50 [2]: 8.40
- pIC50 [3]: 8.40
- pIC50 [4]: 8.40
- pIC50 [5]: 8.40
